The target of data set [1] is O-phosphoserine sulfhydrylase from Mycolicibacterium smegmatis (OPSSmsm), SEQ ID NO: 104 (Mycolicibacterium smegmatis, UniProt A0R1X2). Kind of data set: O-phosphoserine sulfhydrylase (OPSS) activity, cysteine formation (Gaitonde method), kinetic parameters of purified enzyme. In kind it is biochemical, Mycolicibacterium smegmatis (strain ATCC 700084 / mc(2)155).
The target of data set [2] is O-phosphoserine sulfhydrylase from Geobacter sulfurreducens (OPSSgsu), SEQ ID NO: 2 (Geobacter sulfurreducens, UniProt Q747V7). The description is as above. Format: biochemical. Conditions: pH 7.5, 30°C; read-out: Km (Na2S).
In data set [3] the target is O-phosphoserine sulfhydrylase from Rhodothermus marinus (OPSSrma), SEQ ID NO: 4 (Rhodothermus marinus, UniProt D0MJA5). The description is as above. In kind it is biochemical, Rhodothermus marinus (strain ATCC 43812 / DSM 4252 / R-10). Conditions: pH 7.5, 30°C; read-out: Km (Na2S).
Data set [4] concerns O-phosphoserine sulfhydrylase from Dethiobacter alkaliphilus (OPSSdal), SEQ ID NO: 106. Described as above. In kind it is biochemical, Dethiobacter alkaliphilus AHT 1. On the procedure:
This reaction solution, except the enzymes, were incubated at 30°C for 10 min. After then, 0.5 to 1 µg of purified OPSS was added to the reaction solution, incubated at 30°C. 100 µl of the enzyme reaction solutions were taken after 5 min, 10 min, 15 min and mixed with 50 µl cold 1.5 M TCA to stop the enzymatic reaction. The cysteine concentrations in the enzyme reaction solution were quantified by measuring absorbance at OD560 nm according to Gaitonde method (Gaitonde,M.K. (1967), Biochem. J. 104, 627-633).
Kinetic parameters were determined using Sigmaplot.

Substrate in data set [5]: N[C@@H](COP(=O)(O)O)C(=O)O
Kind of data set: purified protein, by the assay type. Conditions: fixed Na2S 50 mM, O-phosphoserine 0.5-100 mM, 100 mM Hepes pH 7.5, 30°C.

O-phosphoserine sulfhydrylase from Mycolicibacterium smegmatis (OPSSmsm), SEQ ID NO: 104, sequence (A0R1X2 1-323): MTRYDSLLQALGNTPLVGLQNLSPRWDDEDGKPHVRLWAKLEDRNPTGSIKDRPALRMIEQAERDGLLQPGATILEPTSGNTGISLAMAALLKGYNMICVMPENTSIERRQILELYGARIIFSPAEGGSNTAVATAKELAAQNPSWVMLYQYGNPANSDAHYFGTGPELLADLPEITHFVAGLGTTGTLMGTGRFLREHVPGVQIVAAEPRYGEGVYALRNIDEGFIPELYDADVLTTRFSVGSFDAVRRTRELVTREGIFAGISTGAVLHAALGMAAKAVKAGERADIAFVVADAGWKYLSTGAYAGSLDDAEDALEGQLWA

Consider Na2S, for which the Km in data set [1] (pH 7.5, 30°C, read-out: Km (Na2S)) was 1.4 mM; in data set [2], 16 mM; in data set [3], 13 mM.

With `N[C@@H](COP(=O)(O)O)C(=O)O` [OPS, O-phosphoserine], in data set [1] (read-out: activity lost (inhibition by O-Phosphoserine)), the inhibition at 20000 µM was found to be 50%. In data set [4] (calculated from the O-phosphoserine saturation curves, Na2S 50 mM, pH 7.5, 30°C), the kcat is 19 s⁻¹. Besides, in data set [4] (read-out: Km (OPS), fixed Na2S 50 mM, O-phosphoserine 0.5-100 mM, 100 mM Hepes pH 7.5, 30°C), the Km came out at 17 mM.

B1: O-phosphoserine sulfhydrylase from Rhodothermus marinus (OPSSrma), SEQ ID NO: 4 (Rhodothermus marinus DSM 4252) (protein)
chain: MFAETLQTTTNTRPLSGTELIRAIGHTPLIRLRRVARHLPETVAVYVKAEHLNPGGSVKDRPALRMVLEGLRSGALREGRALIDATSGNTGIAYAMLGAALGFPVTLAMPANASPERKRILKAYGAELILTDPMEGTDGAQRYVRELVQQEPDRYFYPDQYNNDANWRAHYEGTGIEILEQTGGRVTHFVAGLGTTGTFVGVSRRLKAHNPAIRCYALQPDSPLHGLEGLKHLETAIVPGIYDPSLVDEHLSCSTEEAFEMTRRLAREEGLFVGPSSGANVAAALHIAEQLDRGVVVTVLCDTGARYLSEPFWEETP
As for B1, in data set [5] (other: OPSSrma), the Km is 6 mM and the kcat was found to be 47 s⁻¹.

B2: O-phosphoserine sulfhydrylase from Geobacter sulfurreducens (OPSSgsu), SEQ ID NO: 2 (Geobacter sulfurreducens PCA) (protein)
chain: MEHPPFSLAGSIGATPLVELRHLNPNPRVRILAKLEGNNVGGSVKDRPALYMLAKAEESGELVPEKTILEPTSGNTGIALAMLGTVKGYRVKLVMPACVSLERRAVLEAYGAELVLSPHDEATDGAIRLAHRILEEEPDRYYMPNQYANPNNPLAHYETTAPEIFRDTGGAVDFFVAGMGTGGTLMGTSRYFREKKPSVRIVGVEPRLGHKVQGLKNMQEAIVPPIYHPEALDLKLTVHDEPAFDTARELAAREGLFVGMSSGAAVAGAVQVARDAPAGSTIVVLLPDRGDRYLSTVLFRSVCGKCPP
B2: in data set [5] (other: OPSSgsu), the Km came out at 16 mM and the kcat is 58 s⁻¹.

Values taken from patent EP4467640A1, “MICROORGANISM AND METHOD FOR THE IMPROVED PRODUCTION OF CYSTEINE AND/OR DERIVATIVES THEREOF” (Metabolic Explorer, priority 2023, dated 2024).
